Laboratory results reported in patent US11109593B2, “Isoxazolin-5-one derivative and herbicide containing same as active ingredient” (HOKKO CHEMICAL INDUSTRY CO., LTD., priority 2017, dated 2021).

What was measured:
Format in all cases: in vivo
[1] = test system: Amaranthus viridis; experiment: Test Example 4: herbicidal effect test by treatment of leave and stem in dry field farming (seven days after seeding); conditions: 120 g/10a active ingredient; emulsion sprayed seven days after seeding; evaluated 14 days after treatment
Outline: (§1)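 Duplicate pots were scored 14 days post-spray by dry weight, herbicidal rate = {1 − treated/untreated average dry weight} × 100. The water-diluted emulsion, equivalent to 120 g active ingredient per 10 ares in 100 L, was applied seven days after sowing 20 seeds each into the upper 1 cm of alluvial soil.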

[2] = test system: Chenopodium album; experiment: as above; conditions: 120 g/10a active ingredient; emulsion sprayed seven days after seeding; evaluated 14 days after treatment
Outline: as §1

[3] = test system: Echinochloa crus-galli; experiment: as above; conditions: 120 g/10a active ingredient; emulsion sprayed seven days after seeding; evaluated 14 days after treatment
Outline: as §1

[4] = test system: southern crabgrass; experiment: as above; conditions: 120 g/10a active ingredient; emulsion sprayed seven days after seeding; evaluated 14 days after treatment
Outline: as §1

[5] = test system: Scirpus juncoides; experiment: Test Example 2: herbicidal effect test by treatment during growing period in paddy rice cultivation (seven days after seeding); conditions: for Herbicidal rate (%) Scirpus juncoides: 120 g/10a active ingredient, assessed 14 days after treatment, dry weight vs untreated area
Outline: (§2)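 Greenhouse flooded-pot test, seeds sown in puddled paddy soil; emulsion applied into water 7 d after seeding, 120 g a.i./10 a. Dry-weight-based herbicidal rate at 14 d, n=2.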

[6] = test system: broad leaf weeds (Lindernia pyxidaria and Monochoria vaginalis); experiment: as above; conditions: for Herbicidal rate (%) Lindernia pyxidaria / Herbicidal rate (%) Monochoria vaginalis: 120 g/10a active ingredient, assessed 14 days after treatment, dry weight vs untreated area
Outline: as §2

[7] = test system: Echinochloa crus-galli; experiment: as above; conditions: for Herbicidal rate (%) Echinochloa crus-galli: 120 g/10a active ingredient, assessed 14 days after treatment, dry weight vs untreated area
Outline: as §2

[8] = test system: Amaranthus viridis; experiment: Test Example 3: herbicidal effect test by treatment of dry field farming soil (one day after seeding); conditions: 120 g/10a active ingredient, evaluated 14 days after treatment
Outline: (§3)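 Compound emulsions are sprayed on the soil surface one day after sowing (120 g a.i. per 10 ares) before weeds emerge. Effect is expressed as percent dry-weight reduction versus untreated controls 14 days post-treatment.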

[9] = test system: Chenopodium album; experiment: as above; conditions: 120 g/10a active ingredient, evaluated 14 days after treatment
Outline: as §3

[10] = test system: Echinochloa crus-galli; experiment: as above; conditions: 120 g/10a active ingredient, evaluated 14 days after treatment
Outline: as §3

[11] = test system: southern crabgrass; experiment: as above; conditions: 120 g/10a active ingredient, evaluated 14 days after treatment
Outline: as §3

[12] = test system: Scirpus juncoides; experiment: Test Example 1: herbicidal effect test by treatment of rice paddy soil (immediately after seeding)
Outline: (§4)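 Values are herbicidal rates (%) derived from average plant dry weight in treated versus untreated pots 14 days after treatment, run in duplicate. Treatment was a water-diluted emulsion dropped into flooded paddy soil right after sowing, at 120 g active ingredient per 10 ares.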

[13] = test system: broad leaf weeds (Lindernia pyxidaria and Monochoria vaginalis); experiment: as above
Outline: as §4

[14] = test system: Echinochloa crus-galli; experiment: as above
Outline: as §4

[15] = 120 g/10a active ingredient, dry weight vs untreated area, 14 days after treatment
[16] = Lindernia pyxidaria, 120 g/10a active ingredient, dry weight vs untreated area, 14 days after treatment
[17] = Monochoria vaginalis, 120 g/10a active ingredient, dry weight vs untreated area, 14 days after treatment
[18] = 120 g/10a active ingredient, 14 days after treatment, dry weight vs untreated area
[19] = Lindernia pyxidaria, 120 g/10a active ingredient, 14 days after treatment, dry weight vs untreated area
[20] = Monochoria vaginalis, 120 g/10a active ingredient, 14 days after treatment, dry weight vs untreated area
[21] = 120 g/10a, rated 14 days after treatment, paddy soil pots

SMILES	herbicidal effect (herbicidal rate), Amaranthus viridis [1]	herbicidal effect (herbicidal rate), Chenopodium album [2]	herbicidal effect (herbicidal rate), Echinochloa crus-galli [3]	herbicidal effect (herbicidal rate), southern crabgrass [4]	Herbicidal rate (%) Scirpus juncoides [5]	Herbicidal rate (%) Lindernia pyxidaria ([6]; Lindernia pyxidaria)	Herbicidal rate (%) Monochoria vaginalis ([6]; Monochoria vaginalis)	Herbicidal rate (%) Echinochloa crus-galli [7]	herbicidal rate, Amaranthus viridis [8]	herbicidal rate, Chenopodium album [9]	herbicidal rate, Echinochloa crus-galli [10]	herbicidal rate, southern crabgrass [11]	Herbicidal rate (%) Scirpus juncoides [12, 15]	Herbicidal rate (%) Lindernia pyxidaria [13, 16]	Herbicidal rate (%) Monochoria vaginalis [13, 17]	Herbicidal rate (%) Echinochloa crus-galli [14, 15]	other results
CCC(CC)Cn1oc(=O)c(Cc2ccccc2N(S(=O)(=O)C(F)(F)F)S(=O)(=O)C(F)(F)F)c1C [Compound 1-973]	40%	0%	90%	80%	90%	60%	90%	100%	90%	90%	100%	100%	100%	100%	80%	100%	
CCC(C)n1oc(=O)c(Cc2ccccc2N(C(=O)CC(C)C)S(=O)(=O)C(F)(F)F)c1C (centres unmarked) [Compound 1-352]	40%	40%	90%	90%	90%	90%	90%	90%	90%	90%	90%	90%	90%	90%	90%	90%	
Cc1c(Cc2ccccc2N(S(=O)(=O)C(F)(F)F)S(=O)(=O)C(F)(F)F)c(=O)on1C1CCCc2ccccc21 (centres unmarked) [Compound 1-1050]	40%	50%	50%	40%	90%	100%	90%	90%	90%	90%	100%	90%					Herbicidal rate (%) Scirpus juncoides [12, 18]: 90%; Herbicidal rate (%) Lindernia pyxidaria [13, 19]: 100%; Herbicidal rate (%) Monochoria vaginalis [13, 20]: 100%; Herbicidal rate (%) Echinochloa crus-galli [14, 18]: 100%
Cc1ccc(S(=O)(=O)N(c2ccccc2Cc2c(C)n(C(C)C)oc2=O)S(=O)(=O)C(F)(F)F)cc1 [Compound 1-1127]	40%	40%	90%	40%					40%	60%	90%	70%					herbicidal rate, Scirpus juncoides [5, 21]: 90%; herbicidal rate, Lindernia pyxidaria ([6]; Lindernia pyxidaria, 120 g/10a, rated 14 days after treatment, paddy soil pots): 100%; herbicidal rate, Monochoria vaginalis ([6]; Monochoria vaginalis, 120 g/10a, rated 14 days after treatment, paddy soil pots): 100%; herbicidal rate, Echinochloa crus-galli [7, 21]: 100%; Herbicidal rate (%) Scirpus juncoides [12, 18]: 90%; Herbicidal rate (%) Lindernia pyxidaria [13, 19]: 100%; Herbicidal rate (%) Monochoria vaginalis [13, 20]: 100%; Herbicidal rate (%) Echinochloa crus-galli [14, 18]: 100%
Cc1c(Cc2ccc(Cl)cc2NS(=O)(=O)C(F)(F)F)c(=O)on1C(C)C [Compound 1-37]	40%	80%	90%	40%	0%	40%	40%	40%	0%	40%	70%	40%	90%	80%	40%	60%	
Cc1c(Cc2cc(Cl)ccc2NS(=O)(=O)C(F)(F)F)c(=O)on1C(C)C [Compound 1-41]	60%	90%	90%	90%	60%	90%	80%	90%	0%	50%	90%	90%	100%	100%	100%	100%	
CCCCC(C)n1oc(=O)c(Cc2ccccc2NS(=O)(=O)C(F)(F)F)c1C (centres unmarked) [Compound 1-120]	60%	50%	90%	80%	90%	80%	80%	90%	50%	50%	90%	90%	100%	100%	100%	100%	
CCCCC(c1ccccc1)n1oc(=O)c(Cc2ccccc2N(S(=O)(=O)C(F)(F)F)S(=O)(=O)C(F)(F)F)c1C (centres unmarked) [Compound 1-1041]	60%	40%	40%	50%	70%	70%	70%	90%	50%	50%	70%	80%	90%	90%	90%	100%	
